Reference: publication PMC6278467, “Isolation and Identification of Potent Antidiabetic Compounds from Antrodia cinnamomea—An Edible Taiwanese Mushroom” (Molecules, 2018)
Converted amounts (≈) assume the structure as drawn.

Target: T1, Saccharomyces cerevisiae α-glucosidase
T1 construct: gene MAL12; commercial enzyme from Sigma Chemical Co
Experiment: pNPG hydrolysis, absorbance at […] nm
Type: biochemical
Conditions: p-NPG (10 mmol/L stock, 50 μL), 0.1 mol/L potassium phosphate pH 7, 37 °C, 20 min preincubation

[1] = value lies below the stated tested range (0.02-0.25, unit printed as μg/mL in footnote)

Row | Structure (SMILES) | EC50 | EC50 [1]
1 | C=C(CC[C@@H](C)[C@H]1CC[C@H]2C3=C(C(=O)C[C@]12C)[C@@]1(C)CC[C@@H](O)[C@](C)(O)[C@@H]1C[C@@H]3O)[C@@H](C)C(=O)O [compound 2, 25R-antcin K] | 54 ± 0.4 mg/L (≈ 111 µM) | 
2 | C=C(CC[C@@H](C)[C@H]1CC[C@H]2C3=C(C(=O)C[C@]12C)[C@@]1(C)CCC(=O)[C@@H](C)[C@@H]1CC3=O)[C@H](C)C(=O)O [compound 5, 25S-antcin B] | 210 ± 7.6 mg/L (≈ 448 µM) | 
3 | C=C(CC[C@@H](C(=O)O)[C@H]1CC[C@@]2(C)C3=CC[C@H]4C(C)(C)[C@@H](O)CC[C@]4(C)C3=CC[C@]12C)C(C)C [compound 7, dehydroeburicoic acid] |  | 18 ± 0.2 mg/L (≈ 38.4 µM)
4 | C=C(CC[C@@H](C(=O)O)[C@H]1CC[C@@]2(C)C3=C(CC[C@]12C)[C@@]1(C)CC[C@H](O)C(C)(C)[C@@H]1CC3)C(C)C [compound 8, eburicoic acid] |  | 12 ± 0.4 mg/L (≈ 25.5 µM)
